According to publication PMC2800825 (Biochemistry, 2009):
Positions count from the first letter of the chain named. Where “and” joins values, the source holds several entries; their conditions need not be identical. Identical values can stand only once. Like-named read-outs stand apart in the source and are kept apart here.

Columns and labels:
[1] = target: T1, Asn111Asp mutant E. coli DHOD (Escherichia coli, UniProt P0A7E1, N111D); details: pH 8.5, 25 °C
[2] = target: T2, Asn172Ala/Asn246Ala mutant E. coli DHOD (Escherichia coli, UniProt P0A7E1, N172A/N246A); experiment: biochemical
T2 sequence (P0A7E1 1-336 N172A/N246A): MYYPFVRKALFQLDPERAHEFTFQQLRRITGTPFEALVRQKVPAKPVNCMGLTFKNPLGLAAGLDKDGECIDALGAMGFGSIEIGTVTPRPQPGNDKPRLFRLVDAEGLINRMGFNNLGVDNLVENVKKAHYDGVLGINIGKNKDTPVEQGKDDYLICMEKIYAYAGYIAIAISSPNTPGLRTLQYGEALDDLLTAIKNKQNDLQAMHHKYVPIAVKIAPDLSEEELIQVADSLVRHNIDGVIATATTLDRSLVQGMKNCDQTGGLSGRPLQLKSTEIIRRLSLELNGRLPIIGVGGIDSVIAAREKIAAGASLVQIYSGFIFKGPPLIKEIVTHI

[3] = target: T3, Thr247Ser mutant E. coli DHOD (Escherichia coli, UniProt P0A7E1, T247S); details: pH 8.5, 25 °C
T3 sequence (P0A7E1 1-336 T247S): T2 sequence (P0A7E1 1-336 N172A/N246A) with A172N, A246N, T247S

[4] = target: T3, Thr247Ser mutant E. coli DHOD; experiment: biochemical
[5] = target: T4, Asn111Ala mutant E. coli DHOD (Escherichia coli, UniProt P0A7E1, N111A); experiment: biochemical
[6] = target: T5, Asn172Ala mutant E. coli DHOD (Escherichia coli, UniProt P0A7E1, N172A); experiment: biochemical
T5 sequence (P0A7E1 1-336 N172A): T2 sequence (P0A7E1 1-336 N172A/N246A) with A246N

[7] = target: T6, Asn177Ala mutant E. coli DHOD (Escherichia coli, UniProt P0A7E1, N177A); experiment: biochemical
[8] = target: T7, Asn246Ala mutant E. coli DHOD (Escherichia coli, UniProt P0A7E1, N246A); details: pH 8.5, 25 °C
[9] = target: T8, Thr247Ala mutant E. coli DHOD (Escherichia coli, UniProt P0A7E1, T247A); experiment: biochemical
[10] = target: T2, Asn172Ala/Asn246Ala mutant E. coli DHOD; details: pH 8.5, 25 °C
[11] = target: T6, Asn177Ala mutant E. coli DHOD; details: pH 8.5, 25 °C
[12] = target: T4, Asn111Ala mutant E. coli DHOD; details: pH 8.5, 25 °C
[13] = target: T5, Asn172Ala mutant E. coli DHOD; details: pH 8.5, 25 °C
[14] = target: T8, Thr247Ala mutant E. coli DHOD; details: pH 8.5, 25 °C
[15] = target: T7, Asn246Ala mutant E. coli DHOD; experiment: biochemical; details: Kd of OA, Asn246Ala oxidized enzyme, pH 8.5, 25 °C
[16] = target: T9, wild-type E. coli DHOD (Escherichia coli, UniProt P0A7E1); experiment: biochemical
T9 sequence (P0A7E1 1-336): T2 sequence (P0A7E1 1-336 N172A/N246A) with A172N, A246N

[17] = target: T1, Asn111Asp mutant E. coli DHOD; experiment: biochemical
[18] = target: T4, Asn111Ala mutant E. coli DHOD; experiment: Reductive half-reaction with DHO, anaerobic stopped-flow; type: biochemical
[19] = target: T3, Thr247Ser mutant E. coli DHOD; experiment: as above; type: biochemical
[20] = target: T2, Asn172Ala/Asn246Ala mutant E. coli DHOD; type: biochemical; details: pH 8.5, footnote b printed, text says examined at 25°
[21] = target: T5, Asn172Ala mutant E. coli DHOD; experiment: Reductive half-reaction with DHO, anaerobic stopped-flow; type: biochemical
[22] = target: T1, Asn111Asp mutant E. coli DHOD; experiment: as above; type: biochemical
[23] = target: T8, Thr247Ala mutant E. coli DHOD; experiment: as above; type: biochemical
[24] = target: T7, Asn246Ala mutant E. coli DHOD; experiment: as above; type: biochemical
[25] = target: T6, Asn177Ala mutant E. coli DHOD; experiment: as above; type: biochemical
[26] = target: T9, wild-type E. coli DHOD; details: cited from earlier work
[27] = target: T7, Asn246Ala mutant E. coli DHOD; details: protio-DHO vs 5,5,6-^2H3 DHO, pH 8.5, 4 °C
[28] = target: T1, Asn111Asp mutant E. coli DHOD; details: protio-DHO vs 5,5,6-^2H3 DHO, pH 8.5, 4 °C
[29] = target: T8, Thr247Ala mutant E. coli DHOD; details: protio-DHO vs 5,5,6-^2H3 DHO, pH 8.5, 4 °C
[30] = target: T4, Asn111Ala mutant E. coli DHOD; details: protio-DHO vs 5,5,6-^2H3 DHO, pH 8.5, 4 °C

T7 sequence (P0A7E1 whole entry N246A): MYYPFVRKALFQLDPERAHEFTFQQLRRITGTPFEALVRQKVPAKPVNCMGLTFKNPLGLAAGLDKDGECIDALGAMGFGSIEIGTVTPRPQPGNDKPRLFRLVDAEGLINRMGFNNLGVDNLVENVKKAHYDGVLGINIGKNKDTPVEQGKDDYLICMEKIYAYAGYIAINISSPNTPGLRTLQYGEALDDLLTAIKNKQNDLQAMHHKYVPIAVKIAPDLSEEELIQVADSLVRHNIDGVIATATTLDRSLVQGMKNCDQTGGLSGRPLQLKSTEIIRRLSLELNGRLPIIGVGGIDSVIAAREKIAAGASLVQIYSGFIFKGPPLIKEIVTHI
T8 sequence (P0A7E1 whole entry T247A): as the sequence (P0A7E1 whole entry N246A) above, with A246N, T247A counted along it
T4 sequence (P0A7E1 whole entry N111A): as the sequence (P0A7E1 whole entry N246A) above, with N111A, A246N counted along it
T1 sequence (P0A7E1 whole entry N111D): as the sequence (P0A7E1 whole entry N246A) above, with N111D, A246N counted along it
T6 sequence (P0A7E1 whole entry N177A): as the sequence (P0A7E1 whole entry N246A) above, with N177A, A246N counted along it

O=C(O)c1cc(=O)[nH]c(=O)[nH]1 [OA, orotate]
Kd(mutant)/Kd(Wild-Type) for OA [1]: ≫ 22000
Kd [2]: ~50000 µM
Kd(mutant)/Kd(Wild-Type) for OA [3]: 1.1
Kd [4]: 3.8 ± 0.5 µM
Kd [5]: 47.2 ± 0.2 µM
Kd [6]: 220 ± 9 µM
Kd [7]: 27.5 ± 1.5 µM
Kd(mutant)/Kd(Wild-Type) for OA [8]: 150 and 152
Kd [9]: 39.3 ± 1.6 µM
Kd(mutant)/Kd(Wild-Type) for OA [10]: ~ 14700
Kd(mutant)/Kd(Wild-Type) for OA [11]: 8
Kd(mutant)/Kd(Wild-Type) for OA [12]: 14
Kd(mutant)/Kd(Wild-Type) for OA [13]: 65
Kd(mutant)/Kd(Wild-Type) for OA [14]: 12
Kd [15]: 520 µM and 518 µM
Kd [16]: 3.4 ± 0.8 µM
Kd [17]: > 75000 µM

O=C1C[C@@H](C(=O)O)NC(=O)N1 [DHO, dihydroorotate]
Kd [18]: 1040 µM
fold decrease in kred vs wild-type ([18]; Asn111Ala): ~ 4600 fold
fold increase in Kd of DHO vs wild-type ([18]; Asn111Ala): ~ 50 fold
kred (reduction rate constant) ([18]; Asn111Ala, pH 8.5, 4 °C): 0.0100 ± 0.0001 s⁻¹
Kd [19]: 45 ± 5 µM
kred (reduction rate constant) ([19]; Thr247Ser, pH 8.5, 4 °C): 58.8 ± 1.1 s⁻¹
observed rate constant of the final phase, independent of DHO concentration ([19]; Thr247Ser, pH 8.5, 4 °C): ~ 0.02 s^−1
kred (reduction rate constant) [20]: ~0.002 ^b s^−1
Kd [21]: 278 ± 9 µM
fold increase in Kd of DHO vs wild-type ([21]; Asn172Ala): ~ 14 fold
kred (reduction rate constant) ([21]; Asn172Ala, pH 8.5, 4 °C): 0.00437 ± 0.0002 s⁻¹ and 0.00437 ± 0.00002 s⁻¹
fold slower reduction rate constant than wild-type [22]: ~ 450 fold
kred (reduction rate constant) ([22]; pH 8.5, 4 °C, estimated): ~0.1 s⁻¹
Kd [23]: 198 ± 16 µM
fold decrease in reduction rate constant vs wild-type ([23]; Thr247Ala): ~ 8 fold
fold increase in Kd of DHO vs wild-type ([23]; Thr247Ala): ~ 10 fold
kred (reduction rate constant) ([23]; Thr247Ala, pH 8.5, 4 °C): 5.52 ± 0.09 s⁻¹
Kd [24]: 47000 µM
fold decrease in reduction rate constant vs wild-type ([24]; Asn246Ala): ~ 570 fold
fold increase in apparent Kd for DHO vs wild-type ([24]; Asn246Ala): ~ 2,000 fold
kred (reduction rate constant) ([24]; Asn246Ala, pH 8.5, 4 °C): 0.081 ± 0.002 s⁻¹
Kd [25]: 22 ± 2 µM
fold decrease in reduction rate constant vs wild-type ([25]; Asn177Ala): ~ 800 fold
kred (reduction rate constant) ([25]; Asn177Ala, pH 8.5, 4 °C): 0.0586 ± 0.0004 s⁻¹
kred (reduction rate constant) ([26]; pH 8.5, 4 °C): 46 s⁻¹
Kd ([26]; read-out: Apparent Kd,DHO, pH 8.5, 4 °C): 20 µM

NC(CO)(CO)CO.O=C(O)c1cc(=O)[nH]c(=O)[nH]1 [OA-Tris salt]
solubility in water: at least 400 mM

[2H]C1([2H])C(=O)NC(=O)NC1([2H])C(=O)O (stereo not drawn) [5,5,6-^2H3 DHO]
KIE ^D(kred/Kd) [27]: 6.3 ± 0.4
KIE ^D(kred/Kd) [28]: 5.3 ± 0.2
KIE ^D(kred/Kd) [29]: 6.3 ± 0.4
KIE ^D(kred/Kd) [30]: 5.9 ± 0.3
